Measured values reported in ChEMBL document CHEMBL1201862, “PubChem BioAssay data set” (2004).
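Five concentrations, 48 hours, 96-well plates. The concentration for 50% growth inhibition is given as GI50.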 Active and inactive are the calls of the source. Rule as the data show it: active = GI50 up to about 1.1 µM and inactive = higher.

How the values were obtained:
Test in all cases: inhibition of tumour cell growth, NCI panel, 48 h
HCT-116 = tested on: HCT-116
SF-268 = tested on: SF-268
SNB-19 = tested on: SNB-19
A549 = tested on: A549
UO-31 = tested on: UO-31
786-0 = tested on: 786-0
SF-295 = tested on: SF-295
COLO 205 = tested on: COLO 205
CCRF-CEM = tested on: CCRF-CEM
SK-MEL-5 = tested on: SK-MEL-5
DU-145 = tested on: DU-145
MDA-MB-231 = tested on: MDA-MB-231
U-251 = tested on: U-251
M14 = tested on: M14
A498 = tested on: A498
NCI/ADR-RES = tested on: NCI/ADR-RES
HCC 2998 = tested on: HCC 2998
NCI-H23 = tested on: NCI-H23
MDA-MB-435 = tested on: MDA-MB-435
SF-539 = tested on: SF-539

SMILES	GI50 (HCT-116)	GI50 (SF-268)	GI50 (SNB-19)	GI50 (A549)	GI50 (UO-31)	GI50 (786-0)	GI50 (SF-295)	GI50 (COLO 205)	GI50 (CCRF-CEM)	GI50 (SK-MEL-5)	GI50 (DU-145)	GI50 (MDA-MB-231)	GI50 (U-251)	GI50 (M14)	GI50 (A498)	GI50 (NCI/ADR-RES)	GI50 (HCC 2998)	GI50 (NCI-H23)	GI50 (MDA-MB-435)	GI50 (SF-539)
Cc1cn(CC2=NCC(C)(C)N2)c(=O)[nH]c1=O	> 100 µM (inactive)	> 100 µM (inactive)	> 100 µM (inactive)	> 100 µM (inactive)	> 100 µM (inactive)	> 100 µM (inactive)	> 100 µM (inactive)	> 100 µM (inactive)	< 0.01 µM (active)	> 100 µM (inactive)	> 100 µM (inactive)	> 100 µM (inactive)	> 100 µM (inactive)	> 100 µM (inactive)	> 100 µM (inactive)	> 100 µM (inactive)	> 100 µM (inactive)	> 100 µM (inactive)		
COC(=O)C(=O)C(C(=O)C(=O)Nc1ccc(C)cc1)c1nc2ccc(C(=O)c3ccccc3)cc2nc1O (stereo not given)	> 100 µM (inactive)	73.6 µM (inactive)	> 100 µM (inactive)	> 100 µM (inactive)	51.2 µM (inactive)	> 100 µM (inactive)	65 µM (inactive)		76.4 µM (inactive)	73.1 µM (inactive)		> 100 µM (inactive)	> 100 µM (inactive)		> 100 µM (inactive)	22.5 µM (inactive)	92.3 µM (inactive)	> 100 µM (inactive)	47.3 µM (inactive)	> 100 µM (inactive)
Cn1c(NNc2ccccc2)cc(=O)[nH]c1=O	42.5 µM (inactive)	34.1 µM (inactive)	> 100 µM (inactive)	37.7 µM (inactive)	28.2 µM (inactive)	20.5 µM (inactive)	21.8 µM (inactive)	36.9 µM (inactive)	20.6 µM (inactive)	25.6 µM (inactive)	> 100 µM (inactive)	28.9 µM (inactive)	53.5 µM (inactive)	33.9 µM (inactive)		35.8 µM (inactive)	27.3 µM (inactive)	> 100 µM (inactive)	20.9 µM (inactive)	29.3 µM (inactive)
CC1CCC2C(C)C(=O)OC2C2(C)C(=O)C=CC12 (stereo not given)	7.76 µM (inactive)	> 10 µM (inactive)	> 10 µM (inactive)	> 10 µM (inactive)	> 10 µM (inactive)	> 10 µM (inactive)	> 10 µM (inactive)	> 10 µM (inactive)	3.92 µM (inactive)	> 10 µM (inactive)	> 10 µM (inactive)	> 10 µM (inactive)	> 10 µM (inactive)	> 10 µM (inactive)		> 10 µM (inactive)	> 10 µM (inactive)	> 10 µM (inactive)	> 10 µM (inactive)	> 10 µM (inactive)
CNC(=O)c1nnn(Cc2ccccc2)c1S	> 100 µM (inactive)		> 100 µM (inactive)	> 100 µM (inactive)	> 100 µM (inactive)	> 100 µM (inactive)	> 100 µM (inactive)	> 100 µM (inactive)	> 100 µM (inactive)	> 100 µM (inactive)	> 100 µM (inactive)	> 100 µM (inactive)	> 100 µM (inactive)	> 100 µM (inactive)		> 100 µM (inactive)	> 100 µM (inactive)	> 100 µM (inactive)	> 100 µM (inactive)	
C(=N\c1ccc(-c2nc3ccccc3[nH]2)cc1)/c1ccc[nH]1	50.9 µM (inactive)	30.3 µM (inactive)		> 100 µM (inactive)	69.3 µM (inactive)	83.4 µM (inactive)		41.3 µM (inactive)	11.4 µM (inactive)	30.3 µM (inactive)	> 100 µM (inactive)			> 100 µM (inactive)	69.5 µM (inactive)	> 100 µM (inactive)	29.5 µM (inactive)	> 100 µM (inactive)	41.8 µM (inactive)	> 100 µM (inactive)
COc1cccc(C=C2N=C(C)N(n3c(-c4ccccc4)nc4ccccc4c3=O)C2=O)c1	> 100 µM (inactive)	> 100 µM (inactive)	> 100 µM (inactive)	> 100 µM (inactive)	> 100 µM (inactive)	> 100 µM (inactive)	95.5 µM (inactive)	> 100 µM (inactive)	57.5 µM (inactive)	> 100 µM (inactive)	> 100 µM (inactive)	> 100 µM (inactive)		> 100 µM (inactive)	> 100 µM (inactive)		> 100 µM (inactive)	> 100 µM (inactive)	> 100 µM (inactive)	> 100 µM (inactive)
c1ccc([P+](CCC[P+](c2ccccc2)(c2ccccc2)c2ccccc2)(c2ccccc2)c2ccccc2)cc1	20.1 µM (inactive)	40.4 µM (inactive)	16.3 µM (inactive)	34 µM (inactive)	> 99.5 µM (inactive)	> 100 µM (inactive)	31.3 µM (inactive)	21.8 µM (inactive)	22.4 µM (inactive)	20.2 µM (inactive)			6.65 µM (inactive)	71.9 µM (inactive)	93.5 µM (inactive)		32.2 µM (inactive)	25.2 µM (inactive)		39 µM (inactive)
